Assays:
participants with SSc-RP [1] = assay: Frequency of weekly RP attacks (all attacks; primary endpoint), patient diary; format: in vivo, human; conditions: for Weekly RP Attacks (All Attacks) Change from Baseline, Mean / Weekly RP Attacks (All Attacks) Change from Baseline, Median / Weekly RP Attacks (All Attacks) Percent Change from Baseline, Mean / Weekly RP Attacks (All Attacks) Percent Change from Baseline, Median / Weekly RP Attacks (All Attacks), Mean / Weekly RP Attacks (All Attacks), Median: ITT Part A; for reduction in weekly frequency of attacks: typical Raynaud attacks
From the text: (§1) Percent change from baseline evaluation for frequency of weekly RP attacks were or will be used as the primary efficacy variable. The sponsor-developed participant-informed diary will be used to record data. Frequency of weekly RP attacks is defined as the total number of RP attacks divided by the number of days with available diary data within the last 7 days of each dosing period then multiplied by 7. Total number of RP attacks during the last 7 days of screening period divided by the number of days with available data then multiplied by 7 will be used as baseline for the analysis of all periods. The variable will be calculated as follows: […]
(§2) Percent change from baseline evaluation for frequency of weekly RP attacks was and will be the primary efficacy endpoint. Frequency of weekly RP attacks is defined as the total number of RP attacks divided by the number of days with available diary data within the last 7 days of each dosing period then multiplied by 7. Total number of RP attacks during the last 7 days of screening period divided by the number of days with available data then multiplied by 7 will be used as baseline for the analysis of all periods.

participants with SSc-RP [2] = assay: Frequency of weekly symptomatic RP attacks (patient diary), Phase 2a Part A; format: in vivo, human; conditions: Cilnidipine 10 mg, n=1, ITT Part A
From the text: as §1, §2

[3] = Cilnidipine 10 mg, Baseline RCS stratum 1 (upper half of table)
[4] = Cilnidipine 10 mg, Excluding Outliers, Baseline RCS stratum 1 (upper half of table)
[5] = Cilnidipine 20 mg, Baseline RCS stratum 1 (upper half of table)
[6] = Cilnidipine 20 mg, Excluding Outliers, Baseline RCS stratum 1 (upper half of table)
[7] = Pooled Cilnidipine 10 mg and Cilnidipine 10 mg + Tadalafil 5 mg, Baseline RCS stratum 2 (lower half of table)
[8] = Pooled Cilnidipine 10 mg and Cilnidipine 10 mg + Tadalafil 5 mg, Excluding Outliers, Baseline RCS stratum 1 (upper half of table)
[9] = Pooled Cilnidipine 10 mg and Cilnidipine 10 mg + Tadalafil 5 mg, Excluding Outliers, Baseline RCS stratum 2 (lower half of table)
[10] = Pooled Cilnidipine 10 mg and Cilnidipine 10 mg + Tadalafil 5 mg, n=3, excluding outliers, last 7 days of dosing
[11] = Pooled Cilnidipine 10 mg and Cilnidipine 10 mg + Tadalafil 5 mg, n=3, last 7 days of dosing
[12] = Pooled Cilnidipine 20 mg and Cilnidipine 20 mg + Tadalafil 5 mg, Baseline RCS stratum 1 (upper half of table)
[13] = Pooled Cilnidipine 20 mg and Cilnidipine 20 mg + Tadalafil 5 mg, Excluding Outliers, Baseline RCS stratum 1 (upper half of table)
[14] = Pooled Cilnidipine 20 mg and Cilnidipine 20 mg + Tadalafil 5 mg, Excluding Outliers, Baseline RCS stratum 2 (lower half of table)
[15] = Pooled Cilnidipine 20 mg and Cilnidipine 20 mg + Tadalafil 5 mg, n=4, excluding outliers, last 7 days of dosing
[16] = Pooled Cilnidipine 20 mg and Cilnidipine 20 mg + Tadalafil 5 mg, n=4, last 7 days of dosing
[17] = Pooled Cilnidipine arms, n=3, excluding outliers, last 7 days of dosing
[18] = Pooled Cilnidipine arms, n=3, last 7 days of dosing
[19] = Pooled Cilnidipine, Baseline RCS stratum 1 (upper half of table)
[20] = Pooled Cilnidipine, Excluding Outliers, Baseline RCS stratum 1 (upper half of table)
[21] = cilnidipine 10 mg daily, n=1, excluding outliers, last 7 days of dosing
[22] = cilnidipine 10 mg daily, n=1, last 7 days of dosing
[23] = cilnidipine 20 mg daily, n=2, excluding outliers, last 7 days of dosing
[24] = cilnidipine 20 mg daily, n=2, last 7 days of dosing

## COCCOC(=O)C1=C(C)NC(C)=C(C(=O)OC/C=C/c2ccccc2)C1c1cccc([N+](=O)[O-])c1 (stereo not shown) [Cilnidipine]
Participants with SSc-RP [1]; [3]
  Weekly RP Attacks (All Attacks) Change from Baseline, Mean: −9.00
  Weekly RP Attacks (All Attacks) Change from Baseline, Median: −9.00
  Weekly RP Attacks (All Attacks) Percent Change from Baseline, Mean: −28.13%
  Weekly RP Attacks (All Attacks) Percent Change from Baseline, Median: −28.13%
  Weekly RP Attacks (All Attacks), Mean: 23.00
  Weekly RP Attacks (All Attacks), Median: 23.00
Participants with SSc-RP [1]; [4]
  Weekly RP Attacks (All Attacks) Change from Baseline, Mean: −9.00
  Weekly RP Attacks (All Attacks) Change from Baseline, Median: −9.00
  Weekly RP Attacks (All Attacks) Percent Change from Baseline, Mean: −28.13%
  Weekly RP Attacks (All Attacks) Percent Change from Baseline, Median: −28.13%
  Weekly RP Attacks (All Attacks), Mean: 23.00
  Weekly RP Attacks (All Attacks), Median: 23.00
Participants with SSc-RP [1]; Cilnidipine 20 mg (n = 3)
  Weekly attack frequency (change): −43%
Participants with SSc-RP [1]; [5]
  Weekly RP Attacks (All Attacks) Change from Baseline, Mean: −6.67
  Weekly RP Attacks (All Attacks) Change from Baseline, Median: −6.67
  Weekly RP Attacks (All Attacks) Percent Change from Baseline, Mean: −45.71%
  Weekly RP Attacks (All Attacks) Percent Change from Baseline, Median: −45.71%
  Weekly RP Attacks (All Attacks), Mean: 8.00
  Weekly RP Attacks (All Attacks), Median: 8.00
Participants with SSc-RP [1]; [6]
  Weekly RP Attacks (All Attacks) Change from Baseline, Mean: −6.67
  Weekly RP Attacks (All Attacks) Change from Baseline, Median: −6.67
  Weekly RP Attacks (All Attacks) Percent Change from Baseline, Mean: −45.71%
  Weekly RP Attacks (All Attacks) Percent Change from Baseline, Median: −45.71%
  Weekly RP Attacks (All Attacks), Mean: 8.00
  Weekly RP Attacks (All Attacks), Median: 8.00
Participants with SSc-RP [1]; [7]
  Weekly RP Attacks (All Attacks) Change from Baseline, Median: −5.00
  Weekly RP Attacks (All Attacks), Median: 6.00
Participants with SSc-RP [1]; [8]
  Weekly RP Attacks (All Attacks) Change from Baseline, Mean: −6.50
  Weekly RP Attacks (All Attacks) Change from Baseline, Median: −6.50
  Weekly RP Attacks (All Attacks) Percent Change from Baseline, Mean: −36.28%
  Weekly RP Attacks (All Attacks) Percent Change from Baseline, Median: −36.28%
  Weekly RP Attacks (All Attacks), Mean: 14.00
  Weekly RP Attacks (All Attacks), Median: 14.00
Participants with SSc-RP [1]; [9]
  Weekly RP Attacks (All Attacks) Change from Baseline, Mean: −5.00
  Weekly RP Attacks (All Attacks) Change from Baseline, Median: −5.00
  Weekly RP Attacks (All Attacks) Percent Change from Baseline, Mean: −45.45%
  Weekly RP Attacks (All Attacks) Percent Change from Baseline, Median: −45.45%
  Weekly RP Attacks (All Attacks), Mean: 6.00
  Weekly RP Attacks (All Attacks), Median: 6.00
Participants with SSc-RP [1]; [10]
  Weekly RP Attacks (All Attacks) Change from Baseline, Mean: −6.00
  Weekly RP Attacks (All Attacks) Change from Baseline, Median: −5.00
  Weekly RP Attacks (All Attacks) Percent Change from Baseline, Mean: −39.34%
  Weekly RP Attacks (All Attacks) Percent Change from Baseline, Median: −44.44%
  Weekly RP Attacks (All Attacks), Mean: 11.33
  Weekly RP Attacks (All Attacks), Median: 6.00
Participants with SSc-RP [1]; [11]
  Weekly RP Attacks (All Attacks) Change from Baseline, Mean: −6.00
  Weekly RP Attacks (All Attacks) Change from Baseline, Median: −5.00
  Weekly RP Attacks (All Attacks) Percent Change from Baseline, Mean: −39.34%
  Weekly RP Attacks (All Attacks) Percent Change from Baseline, Median: −44.44%
  Weekly RP Attacks (All Attacks), Mean: 11.33
  Weekly RP Attacks (All Attacks), Median: 6.00
Participants with SSc-RP [1]; [12]
  Weekly RP Attacks (All Attacks) Percent Change from Baseline, Median: −45.00%
  Weekly RP Attacks (All Attacks), Median: 11.00
Participants with SSc-RP [1]; Pooled Cilnidipine 20 mg and Cilnidipine 20 mg + Tadalafil 5 mg, Baseline RCS stratum 2 (lower half of table)
  Weekly RP Attacks (All Attacks), Median: 11.00
Participants with SSc-RP [1]; [13]
  Weekly RP Attacks (All Attacks) Change from Baseline, Mean: −5.78
  Weekly RP Attacks (All Attacks) Percent Change from Baseline, Mean: −37.49%
  Weekly RP Attacks (All Attacks) Percent Change from Baseline, Median: −45.00%
  Weekly RP Attacks (All Attacks), Mean: 10.33
  Weekly RP Attacks (All Attacks), Median: 11.00
Participants with SSc-RP [1]; [14]
  Weekly RP Attacks (All Attacks) Change from Baseline, Mean: −1.83
  Weekly RP Attacks (All Attacks) Change from Baseline, Median: −1.83
  Weekly RP Attacks (All Attacks) Percent Change from Baseline, Mean: −14.29%
  Weekly RP Attacks (All Attacks) Percent Change from Baseline, Median: −14.29%
  Weekly RP Attacks (All Attacks), Mean: 11.00
  Weekly RP Attacks (All Attacks), Median: 11.00
Participants with SSc-RP [1]; [15]
  Weekly RP Attacks (All Attacks) Change from Baseline, Mean: −4.79
  Weekly RP Attacks (All Attacks) Change from Baseline, Median: −4.17
  Weekly RP Attacks (All Attacks) Percent Change from Baseline, Mean: −31.69%
  Weekly RP Attacks (All Attacks) Percent Change from Baseline, Median: −33.03%
  Weekly RP Attacks (All Attacks), Mean: 10.50
  Weekly RP Attacks (All Attacks), Median: 11.00
Participants with SSc-RP [1]; [16]
  Weekly RP Attacks (All Attacks) Change from Baseline, Mean: −4.79
  Weekly RP Attacks (All Attacks) Change from Baseline, Median: −4.17
  Weekly RP Attacks (All Attacks) Percent Change from Baseline, Mean: −31.69%
  Weekly RP Attacks (All Attacks) Percent Change from Baseline, Median: −33.03%
  Weekly RP Attacks (All Attacks), Mean: 10.50
  Weekly RP Attacks (All Attacks), Median: 11.00
Participants with SSc-RP [1]; Pooled Cilnidipine (n = 7)
  Weekly attack frequency (change): −41%
Participants with SSc-RP [1]; [17]
  Weekly RP Attacks (All Attacks) Change from Baseline, Mean: −7.44
  Weekly RP Attacks (All Attacks) Change from Baseline, Median: −9.00
  Weekly RP Attacks (All Attacks) Percent Change from Baseline, Mean: −39.85%
  Weekly RP Attacks (All Attacks) Percent Change from Baseline, Median: −45.00%
  Weekly RP Attacks (All Attacks), Mean: 13.00
  Weekly RP Attacks (All Attacks), Median: 11.00
Participants with SSc-RP [1]; [18]
  Weekly RP Attacks (All Attacks) Change from Baseline, Median: −9.00
  Weekly RP Attacks (All Attacks) Percent Change from Baseline, Median: −45.00%
  Weekly RP Attacks (All Attacks), Mean: 13.00
  Weekly RP Attacks (All Attacks), Median: 11.00
Participants with SSc-RP [1]; [19]
  Weekly RP Attacks (All Attacks) Change from Baseline, Mean: −7.44
  Weekly RP Attacks (All Attacks) Change from Baseline, Median: −9.00
  Weekly RP Attacks (All Attacks) Percent Change from Baseline, Mean: −39.85%
  Weekly RP Attacks (All Attacks) Percent Change from Baseline, Median: −45.00%
  Weekly RP Attacks (All Attacks), Mean: 13.00
  Weekly RP Attacks (All Attacks), Median: 11.00
Participants with SSc-RP [1]; [20]
  Weekly RP Attacks (All Attacks) Change from Baseline, Mean: −7.44
  Weekly RP Attacks (All Attacks) Change from Baseline, Median: −9.00
  Weekly RP Attacks (All Attacks) Percent Change from Baseline, Mean: −39.85%
  Weekly RP Attacks (All Attacks) Percent Change from Baseline, Median: −45.00%
  Weekly RP Attacks (All Attacks), Mean: 13.00
  Weekly RP Attacks (All Attacks), Median: 11.00
Participants with SSc-RP [1]; [21]
  Weekly RP Attacks (All Attacks) Change from Baseline, Mean: −9.00
  Weekly RP Attacks (All Attacks) Change from Baseline, Median: −9.00
  Weekly RP Attacks (All Attacks), Mean: 23.00
  Weekly RP Attacks (All Attacks), Median: 23.00
Participants with SSc-RP [1]; [22]
  Weekly RP Attacks (All Attacks) Change from Baseline, Mean: −9.00
  Weekly RP Attacks (All Attacks) Change from Baseline, Median: −9.00
  Weekly RP Attacks (All Attacks), Mean: 23.00
  Weekly RP Attacks (All Attacks), Median: 23.00
Participants with SSc-RP [1]; [23]
  Weekly RP Attacks (All Attacks) Change from Baseline, Mean: −6.67
  Weekly RP Attacks (All Attacks) Change from Baseline, Median: −6.67
  Weekly RP Attacks (All Attacks) Percent Change from Baseline, Mean: −45.71%
  Weekly RP Attacks (All Attacks) Percent Change from Baseline, Median: −45.71%
  Weekly RP Attacks (All Attacks), Mean: 8.00
  Weekly RP Attacks (All Attacks), Median: 8.00
Participants with SSc-RP [1]; [24]
  Weekly RP Attacks (All Attacks), Mean: 8.00
  Weekly RP Attacks (All Attacks), Median: 8.00
Participants with SSc-RP [1]; cilnidipine 10 mg (dose response, n=3)
  reduction in weekly frequency of attacks: 28%
Participants with SSc-RP [1]; cilnidipine 20 mg (dose response, n=3)
  reduction in weekly frequency of attacks: 46%
Participants with SSc-RP [2]
  Weekly Symptomatic RP Attacks Change from Baseline, Mean: −7.00
  Weekly Symptomatic RP Attacks Change from Baseline, Median: −7.00
  Weekly Symptomatic RP Attacks Percent Change from Baseline, Mean: −33.33%
  Weekly Symptomatic RP Attacks Percent Change from Baseline, Median: −33.33%
  Weekly Symptomatic RP Attacks, Mean: 14.00
  Weekly Symptomatic RP Attacks, Median: 14.00
Participants with SSc-RP [2]; Excluding Outliers
  Weekly Symptomatic RP Attacks Change from Baseline, Mean: −7.00
  Weekly Symptomatic RP Attacks Change from Baseline, Median: −7.00
  Weekly Symptomatic RP Attacks Percent Change from Baseline, Mean: −33.33%
  Weekly Symptomatic RP Attacks Percent Change from Baseline, Median: −33.33%
  Weekly Symptomatic RP Attacks, Mean: 14.00
  Weekly Symptomatic RP Attacks, Median: 14.00
